What was measured:
B. subtilis 168 [1] = experiment: Bliss interaction score (quartile over a dose matrix) (fitness difference); higher = more antagonism (negative = synergy)
How it was run: (§1)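 Each OD595 reading at entry into stationary phase was scaled to the robust mean of the untreated wells on its plate, with a ceiling of 1. These ratios define fitness, and single-drug fitness was inferred from combinations. The Bliss score compares observed fitness with the product-based expectation and is reported as quartiles across all replicate types, technical, biological and donor/recipient.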

S. aureus DSM 20231 = experiment: as above
How it was run: as §1

S. aureus Newman [2] = experiment: as above
How it was run: as §1

S. pneumoniae D39V [3] = experiment: as above
How it was run: as §1

B. subtilis 168 [4] = experiment: fitness (endpoint OD595 vs no drug) (fraction); higher = more growth
How it was run: (§2)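 Plates with 384 wells were inoculated at OD595 0.01 using 30 µl of TSB, LB Lennox or CY, or 55 µl for S. pneumoniae. Incubation was at 37 °C, with OD595 measured every 30 min for 14 h. Fitness is the stationary-phase transition optical density over the robust mean of no-drug control wells, after first-reading background subtraction; it is capped at 1.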

S. aureus Newman [5] = experiment: as above
How it was run: as §2

S. pneumoniae D39V [6] = experiment: as above
How it was run: as §2
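Throughout, for Bliss interaction score (quartile over a dose matrix): first quartile when negative (synergy) and third quartile when positive (antagonism).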

COc1cccc2c1C(=O)c1c(O)c3c(c(O)c1C2=O)C[C@@](O)(C(=O)CO)C[C@@H]3O[C@H]1C[C@H](N)[C@H](O)[C@H](C)O1 [Doxorubicin] + CN[C@@H]1[C@H](O[C@H]2[C@H](O[C@H]3[C@H](O)[C@@H](O)[C@H](N=C(N)N)[C@@H](O)[C@@H]3N=C(N)N)O[C@@H](C)[C@]2(O)C=O)O[C@@H](CO)[C@H](O)[C@H]1O [Streptomycin]
Details | Bliss interaction score
B. subtilis 168 [1] | -0.355
S. aureus DSM 20231 | -0.0832
S. aureus Newman [2] | -0.043
S. pneumoniae D39V [3] | 0.0825

fitness
Details | partner 1 µg/mL | partner 2 µg/mL | partner 4 µg/mL | partner 8 µg/mL
B. subtilis 168 [4], first compound 0.625 µg/mL | – | 0.869 | – | 0.0284
B. subtilis 168 [4], first compound 1.25 µg/mL | – | – | – | 0.0203
B. subtilis 168 [4], first compound 2.5 µg/mL | – | 0.0556 | 0.0219 | 0.0198
S. aureus Newman [5], first compound 0.625 µg/mL | 0.791 | 0.788 | – | –
S. aureus Newman [5], first compound 1.25 µg/mL | 0.769 | 0.746 | – | –
S. aureus Newman [5], first compound 2.5 µg/mL | 0.75 | 0.742 | – | –
S. pneumoniae D39V [6], first compound 0.25 µg/mL | – | 0.898 | 0.918 | 0.892
S. pneumoniae D39V [6], first compound 0.5 µg/mL | – | 0.935 | 0.907 | 0.901
S. pneumoniae D39V [6], first compound 1 µg/mL | – | 0.874 | 0.875 | 0.858

S. pneumoniae D39V [6], partner 16 µg/mL, one replicate
Details | fitness
first compound 0.25 µg/mL | 0.817
first compound 0.5 µg/mL | 0.761
first compound 1 µg/mL | 0.558

O=C(O)c1cn(C2CC2)c2cc(N3CCNCC3)c(F)cc2c1=O [Ciprofloxacin] + CN[C@@H]1[C@H](O)[C@H](NC)[C@H]2O[C@@]3(O)C(=O)C[C@@H](C)O[C@H]3O[C@@H]2[C@H]1O [Spectinomycin]
Details | Bliss interaction score
B. subtilis 168 [1] | 0.0965
S. aureus DSM 20231 | 0.0785
S. aureus Newman [2] | -0.0629
S. pneumoniae D39V [3] | -0.0847

fitness
Details | partner 2 µg/mL | partner 4 µg/mL | partner 8 µg/mL | partner 16 µg/mL
B. subtilis 168 [4], first compound 0.0098 µg/mL | 0.949 | 0.897 | 0.94 | –
B. subtilis 168 [4], first compound 0.0195 µg/mL | 0.694 | 0.741 | 0.789 | –
B. subtilis 168 [4], first compound 0.039 µg/mL | – | 0.257 | – | –
S. aureus Newman [5], first compound 0.0375 µg/mL | – | 0.643 | 0.666 | 0.622
S. aureus Newman [5], first compound 0.075 µg/mL | – | 0.627 | – | 0.615
S. aureus Newman [5], first compound 0.15 µg/mL | – | – | 0.0938 | 0.0557
S. pneumoniae D39V [6], first compound 0.125 µg/mL | – | 0.919 | 0.913 | 0.706
S. pneumoniae D39V [6], first compound 0.25 µg/mL | – | 0.797 | 0.795 | –
S. pneumoniae D39V [6], first compound 0.5 µg/mL | – | – | – | 0.446

fitness, one replicate
Details | first compound 0.078 µg/mL | first compound 0.156 µg/mL | first compound 0.25 µg/mL | first compound 0.312 µg/mL
S. aureus Newman [5], partner 16 µg/mL | 0.203 | 0.0195 | – | 0.0278
S. aureus Newman [5], partner 32 µg/mL | 0.116 | 0.0216 | – | 0.0094
S. aureus Newman [5], partner 64 µg/mL | 0.0489 | 0.0519 | – | 0.102
S. pneumoniae D39V [6], partner 16 µg/mL | – | – | 0.48 | –

C[C@@H]1O[C@@H]1P(=O)(O)O [Fosfomycin] + CN(C)c1cc(NC(=O)CNC(C)(C)C)c(O)c2c1C[C@H]1C[C@H]3[C@H](N(C)C)C(O)=C(C(N)=O)C(=O)[C@@]3(O)C(O)=C1C2=O [Tigecycline]
Details | Bliss interaction score
B. subtilis 168 [1] | -0.0396
S. aureus DSM 20231 | 0.044
S. aureus Newman [2] | -0.0631
S. pneumoniae D39V [3] | 0.0555

Details | fitness
B. subtilis 168 [4], first compound 1.562 µg/mL, partner 0.039 µg/mL | 0.76
B. subtilis 168 [4], first compound 1.562 µg/mL, partner 0.078 µg/mL | 0.746
B. subtilis 168 [4], first compound 1.562 µg/mL, partner 0.156 µg/mL | 0.713
B. subtilis 168 [4], first compound 3.124 µg/mL, partner 0.039 µg/mL | 0.655
B. subtilis 168 [4], first compound 3.124 µg/mL, partner 0.078 µg/mL | 0.598
B. subtilis 168 [4], first compound 3.124 µg/mL, partner 0.156 µg/mL | 0.595
B. subtilis 168 [4], first compound 6.248 µg/mL, partner 0.039 µg/mL | 0.52
B. subtilis 168 [4], first compound 6.248 µg/mL, partner 0.078 µg/mL | 0.488
B. subtilis 168 [4], first compound 6.248 µg/mL, partner 0.156 µg/mL | 0.492
S. aureus Newman [5], first compound 0.781 µg/mL, partner 0.039 µg/mL | 0.558
S. aureus Newman [5], first compound 0.781 µg/mL, partner 0.078 µg/mL | 0.57
S. aureus Newman [5], first compound 0.781 µg/mL, partner 0.156 µg/mL | 0.593
S. aureus Newman [5], first compound 1.562 µg/mL, partner 0.039 µg/mL | 0.47
S. aureus Newman [5], first compound 1.562 µg/mL, partner 0.078 µg/mL | 0.504
S. aureus Newman [5], first compound 1.562 µg/mL, partner 0.156 µg/mL | 0.518
S. aureus Newman [5], first compound 3.124 µg/mL, partner 0.039 µg/mL | 0.177
S. aureus Newman [5], first compound 3.124 µg/mL, partner 0.078 µg/mL | 0.188
S. aureus Newman [5], first compound 3.124 µg/mL, partner 0.156 µg/mL | 0.184
S. pneumoniae D39V [6], first compound 1.25 µg/mL, partner 0.325 µg/mL | 0.929
S. pneumoniae D39V [6], first compound 1.25 µg/mL, partner 0.65 µg/mL | 0.921
S. pneumoniae D39V [6], first compound 1.25 µg/mL, partner 1.3 µg/mL | 0.942
S. pneumoniae D39V [6], first compound 1.25 µg/mL, partner 2.6 µg/mL | 0.921
S. pneumoniae D39V [6], first compound 2.5 µg/mL, partner 0.325 µg/mL | 0.953
S. pneumoniae D39V [6], first compound 2.5 µg/mL, partner 0.65 µg/mL | 0.912
S. pneumoniae D39V [6], first compound 2.5 µg/mL, partner 1.3 µg/mL | 0.92
S. pneumoniae D39V [6], first compound 2.5 µg/mL, partner 2.6 µg/mL | 0.86
S. pneumoniae D39V [6], first compound 5 µg/mL, partner 0.325 µg/mL | 0.796
S. pneumoniae D39V [6], first compound 5 µg/mL, partner 0.65 µg/mL | 0.748
S. pneumoniae D39V [6], first compound 5 µg/mL, partner 1.3 µg/mL | 0.791
S. pneumoniae D39V [6], first compound 5 µg/mL, partner 2.6 µg/mL | 0.809

fitness, B. subtilis 168 [4], one replicate
Details | first compound 1.562 µg/mL | first compound 3.124 µg/mL | first compound 6.248 µg/mL
partner 0.125 µg/mL | 0.833 | 0.771 | 0.576
partner 0.25 µg/mL | 0.819 | 0.662 | 0.537
partner 0.5 µg/mL | 0.753 | 0.683 | 0.568

O=C(O)c1cn(C2CC2)c2cc(N3CCNCC3)c(F)cc2c1=O [Ciprofloxacin] + Cc1cc(NS(=O)(=O)c2ccc(N)cc2)no1 [Sulfamethoxazol]
Details | Bliss interaction score
B. subtilis 168 [1] | -0.0827
S. aureus DSM 20231 | -0.0468
S. aureus Newman [2] | -0.0651
S. pneumoniae D39V [3] | 0.0466

fitness, one replicate
Details | first compound 0.0098 µg/mL | first compound 0.0195 µg/mL | first compound 0.039 µg/mL | first compound 0.078 µg/mL | first compound 0.156 µg/mL | first compound 0.312 µg/mL
B. subtilis 168 [4], partner 0.5 µg/mL | 0.967 | 0.88 | 0.376 | – | – | –
S. aureus Newman [5], partner 2 µg/mL | – | – | – | 0.76 | 0.495 | 0.0936
S. aureus Newman [5], partner 4 µg/mL | – | – | – | 0.764 | 0.475 | 0.0929
S. aureus Newman [5], partner 8 µg/mL | – | – | – | 0.708 | 0.353 | 0.0905

fitness
Details | partner 1 µg/mL | partner 2 µg/mL | partner 4 µg/mL
B. subtilis 168 [4], first compound 0.0098 µg/mL | 0.89 | 0.858 | 0.913
B. subtilis 168 [4], first compound 0.0195 µg/mL | 0.734 | 0.702 | 0.671
B. subtilis 168 [4], first compound 0.039 µg/mL | 0.0972 | 0.132 | 0.0479
S. aureus Newman [5], first compound 0.0375 µg/mL | 0.732 | 0.715 | 0.722
S. aureus Newman [5], first compound 0.075 µg/mL | 0.623 | – | 0.643
S. aureus Newman [5], first compound 0.15 µg/mL | 0.124 | 0.0895 | 0.0354
S. pneumoniae D39V [6], first compound 0.125 µg/mL | 0.93 | 0.952 | 0.96
S. pneumoniae D39V [6], first compound 0.25 µg/mL | 0.846 | 0.863 | 0.821

O=C(O)c1cn(C2CC2)c2cc(N3CCNCC3)c(F)cc2c1=O [Ciprofloxacin] + CC(C1CCC(C(O1)OC2C(CC(C(C2O)OC3C(C(C(CO3)(C)O)NC)O)N)N)N)NC [Gentamicin]
main component drawn
Details | Bliss interaction score
B. subtilis 168 [1] | 0.19
S. aureus DSM 20231 | 0.0655
S. aureus Newman [2] | 0.12
S. pneumoniae D39V [3] | -0.0953

main component drawn
Details | fitness
B. subtilis 168 [4], first compound 0.0098 µg/mL, partner 0.0625 µg/mL | 0.881
B. subtilis 168 [4], first compound 0.0195 µg/mL, partner 0.0625 µg/mL | 0.703
B. subtilis 168 [4], first compound 0.039 µg/mL, partner 0.25 µg/mL | 0.117
S. aureus Newman [5], first compound 0.0375 µg/mL, partner 0.5 µg/mL | 0.786
S. aureus Newman [5], first compound 0.0375 µg/mL, partner 1 µg/mL | 0.877
S. aureus Newman [5], first compound 0.0375 µg/mL, partner 2 µg/mL | 0.917
S. aureus Newman [5], first compound 0.075 µg/mL, partner 0.5 µg/mL | 0.74
S. aureus Newman [5], first compound 0.075 µg/mL, partner 1 µg/mL | 0.786
S. aureus Newman [5], first compound 0.075 µg/mL, partner 2 µg/mL | 0.783
S. aureus Newman [5], first compound 0.15 µg/mL, partner 0.5 µg/mL | 0.43
S. pneumoniae D39V [6], first compound 0.125 µg/mL, partner 2 µg/mL | 0.954
S. pneumoniae D39V [6], first compound 0.125 µg/mL, partner 4 µg/mL | 0.92
S. pneumoniae D39V [6], first compound 0.125 µg/mL, partner 8 µg/mL | 0.884
S. pneumoniae D39V [6], first compound 0.25 µg/mL, partner 2 µg/mL | 0.792
S. pneumoniae D39V [6], first compound 0.25 µg/mL, partner 4 µg/mL | 0.766
S. pneumoniae D39V [6], first compound 0.25 µg/mL, partner 8 µg/mL | 0.677

fitness, S. aureus Newman [5], one replicate, main component drawn
Details | first compound 0.0375 µg/mL | first compound 0.075 µg/mL | first compound 0.15 µg/mL
partner 0.375 µg/mL | 0.704 | 0.787 | 0.0591
partner 0.75 µg/mL | 0.712 | 0.728 | 0.0774
partner 1.5 µg/mL | 0.639 | 0.175 | 0.0856
